The subject of assay [1] is NCI-H358 cells (express KRas G12C), Phospho-ERK. Description: Cellular inhibition of KRas G12C: Phospho-ERK in NCI-H358 cells. It is filed as cell-based. The conditions noted are these: pERK(Thr202/Tyr204) normalized with GAPDH, NCI-H358 cells, 3 hours, read-out: IC50. An outline of the steps: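 IC50 derived by 4-parameter fit of GAPDH-normalized pERK(Thr202/Tyr204) signal, as percent of DMSO control. Signal came from in-cell immunodetection with infrared secondaries after 3 h compound exposure of KRas G12C NCI-H358 cells at 0.5% DMSO.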

The target in another assay is KRas G12C (Homo sapiens, UniProt P01116, C118S/C51S/C80L/G12C). The experiment in a line: KRas G12C Modification Assay (LCMS detection of covalent adduct). The conditions noted are these: normalized percent of control; tested at 5 μM concentration for 3 hours. It is filed as binding. An outline of the steps: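 Covalent modification was read by reverse-phase LC/MS of intact protein after compound exposure, each reaction stopped at its time point with 25 mM acetic acid. Unmodified-protein signal, taken as percent of total, was normalised to untreated protein and reported as POC.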

In general, IC50 refers to the midpoint of a concentration-inhibition curve.

Like-named read-outs stand apart in the source and are kept apart here.

For the compound `Cc1cccc2cccc(N3CCc4c(nc(OC[C@@H]5CCCN5C)nc4N4CCN(C(=O)/C=C/CN(C)C)[C@@H](CC#N)C4)C3)c12` [Example 456, 2-((S)-1-((E)-4-(dimethylamino)but-2-enoyl)-4-(7-(8-methylnaphthalen-1-yl)-2-(((S)-1-methylpyrrolidin-2-yl)methoxy)-5,6,7,8-tetrahydropyrido[3,4-d]pyrimidin-4-yl)piperazin-2-yl)acetonitrile], in assay [1] (Homo sapiens, NCI-H358, 3 h), the IC50 lay within 0.1 to 1000 nM. Besides, the POC entry on KRas G12C is recorded as “C (“C”>50% POC)”.
On the same counts, the results for `Cc1cccc2cccc(N3CCc4c(nc(OC[C@@H]5CCCN5C)nc4N4CCN(C(=O)/C=C/CN5CCOCC5)[C@@H](CC#N)C4)C3)c12` [Example 457, 2-[(2S)-4-[7-(8-methyl-1-naphthyl)-2-[[(2S)-1-methylpyrrolidin-2-yl]methoxy]-6,8-dihydro-5H-pyrido[3,4-d]pyrimidin-4-yl]-1-[(E)-4-morpholinobut-2-enoyl]piperazin-2-yl]acetonitrile] are 0.1 to 1000 nM and “C (“C”>50% POC)”.
On the same counts, the results for `C=CC(=O)N1CCN(c2nc(OC[C@@H]3CCCN3C)nc3c2CCN(c2cccc4cccc(C)c24)C3)C[C@H]1CC#N` [Example 458, 2-[(2R)-4-[7-(8-methyl-1-naphthyl)-2-[[(2S)-1-methylpyrrolidin-2-yl]methoxy]-6,8-dihydro-5H-pyrido[3,4-d]pyrimidin-4-yl]-1-prop-2-enoyl-piperazin-2-yl]acetonitrile] are 0.1 to 1000 nM and “C (“C”>50% POC)”.
As for `C=CC(=O)N1CCN(c2nc(OC[C@@H]3CCCN3C)nc3c2CCN(c2c(C)c(C)cc4[nH]ncc24)C3)C[C@@H]1CC#N` [Example 459, 2-[(2S)-4-[7-(5,6-dimethyl-1H-indazol-4-yl)-2-[[(25)-1-methylpyrrolidin-2-yl]methoxy]-6,8-dihydro-5H-pyrido[3,4-d]pyrimidin-4-yl]-1-prop-2-enoyl-piperazin-2-yl]acetonitrile], the IC50 in assay [1] lay in the range of 0.1 to 1000 nM. The POC result on KRas G12C is given as “C (“C”>50% POC)”.
On to `Cc1cccc2cccc(N3CCc4c(nc(OCCC(=O)N(C)C)nc4N4CCN(C(=O)/C=C/CN(C)C)[C@@H](CC#N)C4)C3)c12` [Example 460, (S,E)-3-((4-(3-(cyanomethyl)-4-(4-(dimethylamino)but-2-enoyl)piperazin-1-yl)-7-(8-methylnaphthalen-1-yl)-5,6,7,8-tetrahydropyrido[3,4-d]pyrimidin-2-yl)oxy)-N,N-dimethylpropanamide], for which the IC50 in assay [1] (Homo sapiens) lay in the range of 0.1 to 1000 nM. Further, the POC result at KRas G12C is given as “C (“C”>50% POC)”.
As to `C=CC(=O)N1CCN(c2nc(OC[C@@H]3CCCN3C)nc3c2CCN(c2cccc4cccc(Br)c24)C3)C[C@@H]1CC#N` [Example 461, 2-((S)-1-acryloyl-4-(7-(8-bromonaphthalen-1-yl)-2-(((S)-1-methylpyrrolidin-2-yl)methoxy)-5,6,7,8-tetrahydropyrido[3,4-d]pyrimidin-4-yl)piperazin-2-yl)acetonitrile], the IC50 in assay [1] (Homo sapiens, NCI-H358, 3 h) lay in the range of 0.1 to 1000 nM. Besides, the POC entry on KRas G12C is listed as “C (“C”>50% POC)”.
Take `C=CC(=O)N1CCN(c2nc(OC[C@@H]3CCCN3C)nc3c2CCN(c2cccc4ccccc24)C3)[C@@H](C#N)C1` [Example 462, (R)-4-acryloyl-1-(2-(((S)-1-methylpyrrolidin-2-yl)methoxy)-7-(naphthalen-1-yl)-5,6,7,8-tetrahydropyrido[3,4-d]pyrimidin-4-yl)piperazine-2-carbonitrile]: the IC50 in assay [1] (Homo sapiens, NCI-H358, 3 h) is more than 1000 nM. Also, the POC entry at KRas G12C is given as “C (“C”>50% POC)”.
